Article PMC6427912 (Journal of medicinal chemistry, 2019)
Like-named read-outs stand apart in the source and are kept apart here.

Experiments:
B. anthracis Sterne = type: cell-based, Bacillus anthracis; conditions: B. anthracis Sterne growth inhibition
B. subtilis = B. subtilis growth inhibition assay; type: cell-based, Bacillus subtilis
S. aureus = S. aureus growth inhibition assay; type: cell-based, Staphylococcus aureus; conditions: S. aureus growth inhibition
Mycobacterium smegmatis = experiment: M. smegmatis growth inhibition assay; type: cell-based
HEK293 cells = experiment: HEK293 cell growth inhibition assay; type: cell-based, human; conditions: HEK293 cell growth inhibition ED50, 24 hr incubation

Row | Compound | Ba ED50 (B. anthracis Sterne) | Ba ED50 (B. anthracis Sterne; value in parentheses) | Bs ED50 (B. subtilis; 12 hours) | Bs ED50 (B. subtilis; value in parentheses) | Sa ED50 (S. aureus) | Sa ED50 (S. aureus; value in parentheses) | Ms ED50 (Mycobacterium smegmatis; 48 hours) | Ms ED50 (Mycobacterium smegmatis; value in parentheses) | HEK 293 (HEK293 cells) | HEK 293 (HEK293 cells; value in parentheses)
1 | CC(C)CCCC(C)CCCC(C)CCCC(C)CCOc1ccc[n+](CC(P(=O)([O-])O)P(=O)(O)O)c1 (centres unmarked) [Compound 97, Hydrogen(1-phosphono-2-(3-((3,7,11,15-tetramethylhexadecyl)oxy)pyridin-1-ium-1-yl)ethyl)phosphonate] | 7.7 µg/mL | 14 µM | 260 µg/mL | 460 µM | 25 µg/mL | 44 µM | 210 µg/mL | 370 µM |  | 
2 | CC(C)CCCC(C)CCOc1ccnc(NC(P(=O)(O)O)P(=O)(O)O)c1 (centres unmarked) [Compound 95, (((4-((3,7-Dimethyloctyl)oxy)pyridin-2-yl)amino)methylene)bisphosphonic acid] | 2.5 µg/mL | 5.2 µM | 110 µg/mL | 230 µM | 69 µg/mL | 140 µM | 79 µg/mL | 160 µM | 630 µg/mL | 1300 µM
3 | CC(C)CCOc1ccc[n+](CC(P(=O)([O-])O)P(=O)(O)O)c1 (centres unmarked) [Compound 91, Hydrogen (2-(3-(isopentyloxy)pyridin-1-ium-1-yl)-1-phosphonoethyl)phosphonate] | 8.6 µg/mL | 24 µM | 41 µg/mL | 120 µM | 17 µg/mL | 48 µM | 65 µg/mL | 180 µM |  | 
4 | CC(C)CCCC(C)CCSc1ccc[n+](CC(P(=O)([O-])O)P(=O)(O)O)c1 (centres unmarked) [Compound 79, Hydrogen(2-(3-((3,7-dimethyloctyl)thio)pyridin-1-ium-1-yl)-1-phosphonoethyl) phosphonate] | 0.4 µg/mL | 0.9 µM | 2.8 µg/mL | 6.4 µM | 18 µg/mL | 41 µM | 6.2 µg/mL | 14 µM | 224 µg/mL | 510 µM
5 | CC(C)CCCC(C)CCOc1cccc(NCC(P(=O)(O)O)P(=O)(O)O)n1 (centres unmarked) [Compound 92, (2-((6-((3,7-Dimethyloctyl)oxy)pyridin-2-yl)amino)ethane-1,1-diyl)bis(phosphonic acid)] | 4.2 µg/mL | 9.6 µM | 75 µg/mL | 170 µM | 60 µg/mL | 140 µM | 200 µg/mL | 460 µM |  | 
6 | O=P(O)(O)C(CNc1nccs1)P(=O)(O)O [Compound 93] | 2.3 µg/mL | 8.0 µM | 97 µg/mL | 340 µM | 230 µg/mL | 800 µM | 290 µg/mL | 1000 µM |  | 
7 | CCCCCCCCCCCCCc1ccc[n+](CC(P(=O)([O-])O)P(=O)(O)O)c1 (centres unmarked) [Compound 83, Hydrogen (1-phosphono-2-(3-tridecylpyridin-1-ium-1-yl)ethyl)phosphonate] | 2.2 µg/mL | 4.9 µM | 5.5 µg/mL | 12 µM | 30 µg/mL | 67 µM | 7.2 µg/mL | 16 µM | 22 µg/mL | 48 µM
8 | CC(C)CCCC(C)CCSc1cc[n+](CC(P(=O)([O-])O)P(=O)(O)O)cc1 (centres unmarked) [Compound 85, Hydrogen(2-(4-((3,7-dimethyloctyl)thio)pyridin-1-ium-1-yl)-1-phosphonoethyl) phosphonate] | 1.1 µg/mL | 2.5 µM | 7.0 µg/mL | 16 µM | 31 µg/mL | 71 µM | 70 µg/mL | 160 µM | 440 µg/mL | 1000 µM
9 | CC(C)CCCC(C)CCCC(C)CCOc1ccc[n+](CC(P(=O)([O-])O)P(=O)(O)O)c1 (centres unmarked) [Compound 90, Hydrogen(1-phosphono-2-(3-((3,7,11-trimethyldodecyl)oxy)pyridin-1-ium-1-yl)ethyl) phosphonate] | 5.0 µg/mL | 10 µM | 36 µg/mL | 73 µM | 22 µg/mL | 45 µM | 91 µg/mL | 180 µM |  | 
10 | CC(C)CCCC(C)CCNc1ccc[n+](CC(P(=O)([O-])O)P(=O)(O)O)c1 (centres unmarked) [Compound 78, Hydrogen(2-(3-((3,7-dimethyloctyl)amino)pyridin-1-ium-1-yl)-1-phosphonoethyl) phosphonate] | 0.8 µg/mL | 1.9 µM | 2.4 µg/mL | 5.7 µM | 13 µg/mL | 31 µM | 5.5 µg/mL | 13 µM | 186 µg/mL | 440 µM
11 | CC(C)CCCC(C)CCOc1ccnc(NCC(P(=O)(O)O)P(=O)(O)O)c1 (centres unmarked) [Compound 96, (2-((4-((3,7-Dimethyloctyl)oxy)pyridin-2-yl)amino)ethane-1,1-diyl)bis(phosphonic acid)] | 11 µg/mL | 26 µM | 180 µg/mL | 420 µM | 52 µg/mL | 120 µM | 100 µg/mL | 240 µM |  | 
12 | CC(C)CCCC(C)c1cnc(NCC(P(=O)(O)O)P(=O)(O)O)s1 (centres unmarked) [Compound 94, (2-((5-(6-Methylheptan-2-yl)thiazol-2-yl)amino)ethane-1,1-diyl)bis(phosphonic acid)] | 11 µg/mL | 28 µM | 100 µg/mL | 250 µM | 56 µg/mL | 140 µM | 96 µg/mL | 240 µM |  | 
13 | CC(C)CCCC(C)CCn1cc[n+](CC(P(=O)([O-])O)P(=O)(O)O)c1 (centres unmarked) [Compound 82, Hydrogen(2-(1-(3,7-dimethyloctyl)-1H-imidazol-3-ium-3-yl)-1-phosphonoethyl) phosphonate] | 4.3 µg/mL | 11 µM | 4.6 µg/mL | 12 µM | 34 µg/mL | 86 µM | 15 µg/mL | 38 µM | 170 µg/mL | 420 µM
14 | CC(C)CCCC(C)CCc1ccc[n+](CC(P(=O)([O-])O)P(=O)(O)O)c1 (centres unmarked) [Compound 102, Hydrogen (2-(3-(3,7-dimethyloctyl)pyridin-1-ium-1-yl)-1-phosphonoethyl) phosphonate] |  |  | 1.9 µg/mL |  |  |  |  |  |  | 
15 | CC(C)CCCC(C)CCc1csc(NCC(P(=O)(O)O)P(=O)(O)O)n1 (centres unmarked) [Compound 86, (2-((4-(3,7-Dimethyloctyl)thiazol-2-yl)amino)ethane-1,1-diyl)bis(phosphonic acid)] | 5.0 µg/mL | 12 µM | 8.3 µg/mL | 19 µM | 23 µg/mL | 54 µM | 150 µg/mL | 350 µM |  | 
16 | CC(C)CCCC(C)CCc1cnc(NCC(P(=O)(O)O)P(=O)(O)O)s1 (centres unmarked) [Compound 88, (2-((5-(3,7-Dimethyloctyl)thiazol-2-yl)amino)ethane-1,1-diyl)bis(phosphonic acid)] | 7.4 µg/mL | 17 µM | 21 µg/mL | 49 µM | 36 µg/mL | 84 µM | 150 µg/mL | 350 µM |  | 
17 | (((6-(4,8-Dimethylnonyl)pyridin-2-yl)amino)methylene)bis(phosphonic acid) [Compound 89] | 3.0 µg/mL | 6.9 µM | 26 µg/mL | 60 µM | 32 µg/mL | 73 µM | 93 µg/mL | 210 µM | 480 µg/mL | 1100 µM
18 | CC(C)CCCC(C)CCCn1cc[n+](CC(P(=O)([O-])O)P(=O)(O)O)c1 (centres unmarked) [Compound 75, Hydrogen(2-(1-(4,8-dimethylnonyl)-1H-imidazol-3-ium-3-yl)-1-phosphonoethyl) phosphonate] | 1.8 µg/mL | 4.4 µM | 1.7 µg/mL | 4.1 µM | 26 µg/mL | 63 µM | 1.4 µg/mL | 3.4 µM | 181 µg/mL | 440 µM
19 | CC(C)CCCC(C)CCOc1cc(NCC(P(=O)(O)O)P(=O)(O)O)ccn1 (centres unmarked) [Compound 87, (2-((2-((3,7-Dimethyloctyl)oxy)pyridin-4-yl)amino)ethane-1,1-diyl)bis(phosphonic acid)] | 3.2 µg/mL | 7.3 µM | 21 µg/mL | 48 µM | 35 µg/mL | 80 µM | 75 µg/mL | 170 µM | 530 µg/mL | 1200 µM
20 | CC(C)=CCC/C(C)=C/Cc1ccc[n+](CC(P(=O)([O-])O)P(=O)(O)O)c1 (centres unmarked) [Compound 103, 3-[(2E)-3,7-dimethylocta-2,6-dien-1-yl]-1-(2-hydrogenphosphonato-2-phosphonoethyl)pyridin-1-ium] |  |  | ~ 9.2 μg/mL |  |  |  |  |  |  | 
